The values that follow come from patent US8178534B2, “cMET inhibitors” (Takeda Pharmaceutical Company Limited, priority 2008, dated 2012).

Counter-ions that a name gives are not always drawn.

For series [1], the system named is EBC1. Nature of the series: Inhibition of cell viability (MTS), EBC1. The class given is cell-based. The note with it: 96 hours incubation. Put shortly:
(§1)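 Cells seeded at 2,000-7,500/well, attached ~24 h, then treated in duplicate with 1:2.5 serial dilutions at 0.5% final DMSO. Viability by MTS; EC50 from non-linear fit after background correction and normalisation to DMSO. MKN45 and EBC1 are cMET-dependent; A549 serves as negative control.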

Series [2] deals with A549. Nature of the series: Inhibition of cell viability (MTS), A549 (negative control line). The class given is cell-based. The note with it: A549 cells (negative control), 96 hours incubation. The gist of the method:
as §1

In series [3] the test system is MKN45. Nature of the series: Inhibition of cell viability (MTS), MKN45. The class given is cell-based. Conditions: 96 hours incubation. Put shortly:
as §1

The target of series [4] is T1, cMET enzyme (amino acids 1023-1360) (Homo sapiens, UniProt P08581).
T1 construct: The cMET enzyme (amino acids 1023-1360) nominally at 24 μM was held at −80° C. until use; His tag (N, cleaved yes); made in house; host or cells: Sf9 cells
Nature of the series: Determination of inhibition of cMET (capillary electrophoresis, phosphorylated peptide product). The class given is biochemical. The note with it: 1.2 nM cMET, 50 μM ATP, 2 μM FL-2 peptide, 2 hours room temperature.

The mark [5] stands for this setting: Homo sapiens, EBC-1, 96 h, EBC1 cells.
Setting [6] is: Homo sapiens, MKN-45, 96 h, MKN45 cells.

T1 sequence (P08581 1023-1360): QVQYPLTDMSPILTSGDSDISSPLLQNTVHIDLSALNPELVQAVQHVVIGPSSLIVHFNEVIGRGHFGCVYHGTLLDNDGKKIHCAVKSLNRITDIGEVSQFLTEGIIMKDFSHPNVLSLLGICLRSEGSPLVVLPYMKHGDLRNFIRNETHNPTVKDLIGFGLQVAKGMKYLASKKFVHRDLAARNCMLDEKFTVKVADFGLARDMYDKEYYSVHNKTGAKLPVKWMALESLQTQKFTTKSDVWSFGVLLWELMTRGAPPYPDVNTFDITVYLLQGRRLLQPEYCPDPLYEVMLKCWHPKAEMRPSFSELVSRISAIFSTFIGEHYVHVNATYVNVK

Regarding `O=C(Nc1cn2nc(Sc3nnc4ccc(-c5cnn(CCO)c5)cn34)ccc2n1)C1CC1` (as salt: HCl) [Compound 32], the melting point (as a rule, the temperature of the solid-liquid transition) fell in the range of 182 to 184 °C.

The molecule `Cn1cc(-c2ccc3nnn(Cc4ccc5nc(NC(=O)C6CC6)cn5n4)c3c2)cn1` [13 (free base), N-(6-((6-(1-methyl-1H-pyrazol-4-yl)-1H-benzo[d][1,2,3]triazol-1-yl)methyl)imidazo[1,2-b]pyridazin-2-yl)cyclopropanecarboxamide] registered a melting point of 250.2 to 251.6 °C. For the same molecule, in series [1] (EBC1 cells), the EC50 (commonly the midpoint of the concentration-response curve) is less than 30 nM. The same molecule gave an EC50 in series [2] of more than 50000 nM. In series [3] (MKN45 cells), this molecule yielded a half-maximal effective concentration (EC50) of less than 30 nM. In addition, in series [4], the IC50 (in general, the concentration that gives 50% inhibition) lay within 30 to 59 nM.

`O=C(Nc1cn2nc(Sc3nnc4ccc(Br)cn34)ccc2n1)C1CC1` [Compound 4, N-(6-(6-bromo-[1,2,4]triazolo[4,3-a]pyridin-3-ylthio)imidazo[1,2-b]pyridazin-2-yl)cyclopropanecarboxamide]: the EC50 in series [1] (setting [5]) is less than 35 nM; in series [2] (Homo sapiens, A549, 96 h) it was more than 50000 nM; in series [3] (setting [6]) it was 100 to 249 nM. This molecule also yielded an IC50 in series [4] of 30 to 59 nM.

For `Nc1cn2nc(Sc3nnc4ccccn34)ccc2n1` [Compound 114, 6-([1,2,4]triazolo[4,3-a]pyridin-3-ylthio)imidazo[1,2-b]pyridazin-2-amine], the EC50 in series [1] (setting [5]) is more than 630 nM; in series [2] (Homo sapiens, A549, 96 h) it was more than 50000 nM; in series [3] (setting [6]), more than 630 nM. The IC50 in series [4] was more than 630 nM.

Turning to `CS(=O)(=O)c1cccc(-c2ccc3nnc(C(F)(F)c4ccc5nc(NC(=O)C6CC6)cn5n4)n3c2)c1` [Compound 88, N-(6-(difluoro(6-(3-(methylsulfonyl)phenyl)-[1,2,4]triazolo[4,3-a]pyridin-3-yl)methyl)imidazo[1,2-b]pyridazin-2-yl)cyclopropanecarboxamide], the EC50 was less than 30 nM in series [1] (setting [5]); more than 50000 nM in series [2] (Homo sapiens, A549, 96 h); less than 30 nM in series [3] (setting [6]). In series [4], the half-maximal inhibitory concentration (IC50) is less than 30 nM.

Take `N#Cc1ccc2nnc(Sc3ccc4nc(NC(=O)C5CC5)cn4n3)n2c1` [Compound 6, N-(6-(6-cyano-[1,2,4]triazolo[4,3-a]pyridin-3-ylthio)imidazo[1,2-b]pyridazin-2-yl)cyclopropanecarboxamide]: the half-maximal effective concentration (EC50) was more than 200 nM in series [1] (Homo sapiens, EBC-1, EBC1 cells); more than 50000 nM in series [2] (Homo sapiens); more than 630 nM in series [3] (Homo sapiens, MKN-45, MKN45 cells). This molecule also came in with a 50% inhibitory concentration (IC50) in series [4] of more than 100 nM.

Take `CC(C)Oc1cccc(-c2ccc3nnc(C(F)(F)c4ccc5nc(NC(=O)C6CC6)cn5n4)n3c2)c1` [Compound 93, N-(6-(difluoro(6-(3-isopropoxyphenyl)-[1,2,4]triazolo[4,3-a]pyridin-3-yl)methyl)imidazo[1,2-b]pyridazin-2-yl)cyclopropanecarboxamide]: the EC50 in series [1] (setting [5]) lay within 30 to 59 nM; in series [2] (Homo sapiens, A549, 96 h), 8000 to 25000 nM; in series [3] (setting [6]) it was 30 to 59 nM. The same molecule registered an IC50 in series [4] of 60 to 100 nM.

Turning to `CC(c1ccc2nc(NC(=O)C3CC3)cn2n1)c1nnc2ccccn12` (stereo not shown) [Compound 52, N-(6-(1-([1,2,4]triazolo[4,3-a]pyridin-3-yl)ethyl)imidazo[1,2-b]pyridazin-2-yl)cyclopropanecarboxamide], the 50% effective concentration (EC50) in series [1] (setting [5]) was more than 100 nM; in series [2] (Homo sapiens, A549, 96 h), more than 50000 nM; in series [3] (setting [6]) it was more than 100 nM. Besides, the IC50 in series [4] is more than 100 nM.

Regarding `CN(C)c1cccc(-c2ccc3nnc(C(F)(F)c4ccc5nc(NC(=O)C6CC6)cn5n4)n3c2)c1` [Compound 96, N-(6-((6-(3-(dimethylamino)phenyl)-[1,2,4]triazolo[4,3-a]pyridin-3-yl)difluoromethyl)imidazo[1,2-b]pyridazin-2-yl)cyclopropanecarboxamide], the half-maximal effective concentration (EC50) is less than 30 nM in series [1] (setting [5]); 8000 to 25000 nM in series [2] (Homo sapiens, A549, 96 h); less than 30 nM in series [3] (setting [6]). Also, the IC50 in series [4] was less than 30 nM.

Take `CC(c1ccc2nc(NC(=O)C3CC3)cn2n1)c1nnc2ccc(-c3cnn(C)c3)cn12` (stereo not shown) [49 (TFA Salt), N-(6-(1-(6-(1-methyl-1H-pyrazol-4-yl)-[1,2,4]triazolo[4,3-a]pyridin-3-yl)ethyl)imidazo[1,2-b]pyridazin-2-yl)cyclopropanecarboxamide]: the EC50 in series [1] (EBC1 cells) is 60 to 100 nM; in series [2], more than 50000 nM; in series [3] (MKN45 cells) it was 60 to 100 nM. The molecule further registered a 50% inhibitory concentration (IC50) in series [4] of 30 to 59 nM.

Regarding `COc1cccc(-c2ccc3nnc(C(F)(F)c4ccc5nc(NC(=O)C6CC6)cn5n4)n3c2)c1` [Compound 76, N-(6-(difluoro(6-(3-methoxyphenyl)-[1,2,4]triazolo[4,3-a]pyridin-3-yl)methyl)imidazo[1,2-b]pyridazin-2-yl)cyclopropanecarboxamide], the half-maximal effective concentration (EC50) in series [1] (setting [5]) is less than 30 nM; in series [2] (Homo sapiens, A549, 96 h), more than 50000 nM; in series [3] (setting [6]), less than 30 nM. Besides, the IC50 in series [4] is less than 30 nM.

As for `CC(c1ccc2nc(NC(=O)C3CC3)cn2n1)c1nnc2ccc(-c3ccc(C#N)c(F)c3)cn12` (stereo not shown) [Compound 72, N-(6-(1-(6-(4-cyano-3-fluorophenyl)-[1,2,4]triazolo[4,3-a]pyridin-3-yl)ethyl)imidazo[1,2-b]pyridazin-2-yl)cyclopropanecarboxamide], the EC50 in series [1] (setting [5]) was less than 30 nM; in series [2] (Homo sapiens, A549, 96 h), more than 50000 nM; in series [3] (setting [6]) it was less than 30 nM. In addition, in series [4], the IC50 was less than 30 nM.

As for `CN(C)C(=O)Cn1cc(-c2ccc3nnc(Sc4ccc5nc(NC(=O)C6CC6)cn5n4)n3c2)cn1` [Compound 30, N-(6-(6-(1-(2-(dimethylamino)-2-oxoethyl)-1H-pyrazol-4-yl)-[1,2,4]triazolo[4,3-a]pyridin-3-ylthio)imidazo[1,2-b]pyridazin-2-yl)cyclopropanecarboxamide], the EC50 is more than 200 nM in series [1] (setting [5]); more than 19500 nM in series [2] (Homo sapiens, A549, 96 h); more than 630 nM in series [3] (setting [6]). In series [4], this molecule gave an IC50 of 30 to 59 nM.

Consider `Cn1cc(-c2ccc3nnn(Cc4ccc5nc(NC(=O)C6CC6)cn5n4)c3c2)cn1` [13 (TFA Salt), Cyclopropanecarboxylic acid {6-[6-(1-methyl-1H-pyrazol-4-yl)-benzotriazol-1-ylmethyl]-imidazo[1,2-b]pyridazin-2-yl}-amide], for which the 50% effective concentration (EC50) was less than 30 nM in series [1] (EBC1 cells), 5000 to 8000 nM in series [2] and 60 to 100 nM in series [3] (MKN45 cells). Besides, the IC50 in series [4] is 30 to 59 nM.

In the case of `O=C(Nc1cn2nc(C(F)(F)c3nnc4ccc(-c5ccc(F)cc5)cn34)ccc2n1)C1CC1` [Compound 74, N-(6-(difluoro(6-(4-fluorophenyl)-[1,2,4]triazolo[4,3-a]pyridin-3-yl)methyl)imidazo[1,2-b]pyridazin-2-yl)cyclopropanecarboxamide], the EC50 was less than 30 nM in series [1] (setting [5]); 8000 to 25000 nM in series [2] (Homo sapiens, A549, 96 h); less than 30 nM in series [3] (setting [6]). This molecule also yielded a concentration for half-maximal inhibition (IC50) in series [4] of less than 30 nM.

In the case of `COc1ccc(-c2ccc3nnc(Sc4ccc5nc(NC(=O)C6CC6)cn5n4)n3c2)cn1` [Compound 102, N-(6-(6-(6-methoxypyridin-3-yl)-[1,2,4]triazolo[4,3-a]pyridin-3-ylthio)imidazo[1,2-b]pyridazin-2-yl)cyclopropanecarboxamide], the 50% effective concentration (EC50) in series [1] (setting [5]) was 30 to 59 nM; in series [2] (Homo sapiens, A549, 96 h), more than 50000 nM; in series [3] (setting [6]), 60 to 100 nM. In series [4], this molecule gave a 50% inhibitory concentration (IC50) of 30 to 59 nM.

On to `O=C(Nc1cn2nc(C(F)(F)c3nnc4ccc(-c5cccnc5)cn34)ccc2n1)C1CC1` [Compound 78, N-(6-(difluoro(6-(pyridin-3-yl)-[1,2,4]triazolo[4,3-a]pyridin-3-yl)methyl)imidazo[1,2-b]pyridazin-2-yl)cyclopropanecarboxamide], for which the EC50 was less than 30 nM in series [1] (setting [5]); more than 50000 nM in series [2] (Homo sapiens, A549, 96 h); less than 30 nM in series [3] (setting [6]). The IC50 in series [4] fell in the range of 30 to 59 nM.

As to `CC(C)CNC(=O)c1ccc2nnc(Sc3ccc4nc(NC(=O)C5CC5)cn4n3)n2c1` [Compound 35, 3-(2-(cyclopropanecarboxamido)imidazo[1,2-b]pyridazin-6-ylthio)-N-isobutyl-[1,2,4]triazolo[4,3-a]pyridine-6-carboxamide], the EC50 in series [1] (setting [5]) is 100 to 199 nM; in series [2] (Homo sapiens, A549, 96 h), more than 19500 nM; in series [3] (setting [6]), more than 630 nM. For the same molecule, in series [4], the 50% inhibitory concentration (IC50) is more than 100 nM.

With `O=C(Nc1cn2nc(Sc3nnc4ccc(C#CCO)cn34)ccc2n1)C1CC1` [Compound 37, N-(6-(6-(3-hydroxyprop-1-ynyl)-[1,2,4]triazolo[4,3-a]pyridin-3-ylthio)imidazo[1,2-b]pyridazin-2-yl)cyclopropanecarboxamide], the EC50 is 100 to 199 nM in series [1] (setting [5]); more than 50000 nM in series [2] (Homo sapiens, A549, 96 h); 250 to 630 nM in series [3] (setting [6]). For the same molecule, in series [4], the IC50 is 30 to 59 nM.

Consider `O=C(Nc1cn2nc(C(F)(F)c3nnc4ccc(-c5cncnc5)cn34)ccc2n1)C1CC1` [Compound 87, N-(6-(difluoro(6-(pyrimidin-5-yl)-[1,2,4]triazolo[4,3-a]pyridin-3-yl)methyl)imidazo[1,2-b]pyridazin-2-yl)cyclopropanecarboxamide], for which the 50% effective concentration (EC50) in series [1] (setting [5]) is 30 to 59 nM; in series [2] (Homo sapiens, A549, 96 h), more than 50000 nM; in series [3] (setting [6]), 30 to 59 nM. Besides, the IC50 in series [4] lay within 100 to 249 nM.

Turning to `O=C(Nc1cn2nc(Cn3nnc4ccc(-c5cccnc5)cc43)ccc2n1)C1CC1` [Compound 16], the half-maximal effective concentration (EC50) is more than 200 nM in series [1] (setting [5]); more than 50000 nM in series [2] (Homo sapiens, A549, 96 h); more than 630 nM in series [3] (setting [6]). For the same molecule, the IC50 in series [4] was more than 100 nM.
